Experimental findings from patent US10669283B2, “Compound and pharmacologically acceptable salt thereof” (MEIJI SEIKA PHARMA CO., LTD., priority 2016, dated 2020) are described below.

The first assay has as its system PDE4. The assay can be described thus: PDE4 inhibition, scintillation proximity assay (SPA).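 On PDE4 Inhibitory Activity (concentration for the inhibition rate of 50%): A below 100 nM B 100 to below 1000 nM C 1000 nM or more.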 Type of assay: biochemical. Particulars: scintillation proximity assay (SPA); evaluated as classes A, B, C; read-out: PDE4 Inhibitory Activity (concentration for the inhibition rate of 50%). The procedure:
The PDE4 inhibitory activity was measured using scintillation proximity assay (SPA) as follows. A sample compound dissolved in dimethyl sulfoxide was diluted 1:10 in reaction buffer solution which contained 50 mM of Tris-HCl with pH 7.4, 8.3 mM of MgCl2, 1.7 mM of EGTA, and 3 mg/mL of bovine serum albumin (BSA). Then, 10 μL of the diluted solution was added in a 96-well assay plate. Moreover, 50 μL of PDE4 diluted 1:375 in the reaction buffer solution was added, and then 40 μL of [2,8-^3H]-adenosine-3′,5′-cyclic phosphate triethylammonium salt diluted 1:1000 in the reaction buffer solution was added. The mixture was allowed to stand at room temperature for 120 minutes. Thereafter, […] of RNA binding YSi-SPA beads suspension containing ZnSO4 was added and the mixture was allowed to stand at room temperature for 15 minutes, followed by adsorption of the enzyme reaction product to the beads. After that, the radioactivity was measured using a liquid scintillation counter for a 96-well plate. The mixture without the enzyme preparation added but only the reaction buffer solution added is a blank, and the mixture with the enzyme preparation added and only dimethyl sulfoxide added instead of the sample solution is a control.
Take `CON=C(C)c1cc(-c2nccs2)c2oc(N3CC4CCC(C3)N4)nc2c1OC(F)(F)F` (mixture of isomers) [Example 218, (E)-1-(2-(3,8-diazabicyclo[3.2.1]octan-3-yl)-7-(thiazol-2-yl)-4-(trifluoromethoxy)benzo[d]oxazol-5-yl)ethan-1-one O-methyloxime and (Z)-1-(2-(3,8-diazabicyclo[3.2.1]octan-3-yl)-7-(thiazol-2-yl)-4-(trifluoromethoxy)benzo[d]oxazol-5-yl)ethan-1-one O-methyloxime]: the IC50 is less than 100 nM.

Regarding `CC(=O)Nc1cc(-c2nccs2)c2oc(N3CC4CCCC(C3)N4)nc2c1` [Example 48, N-(2-(3,9-diazabicyclo[3.3.1]nonan-3-yl)-7-(thiazol-2-yl)benzo[d]oxazol-5-yl)acetamide], the IC50 was less than 100 nM.

Take `FC(F)(F)COC(c1ccc(-c2nccs2)c2oc(N3CC4CC(C3)N4)nc12)C(F)(F)F` (stereo not shown) [Example 223, 2-(3,6-Diazabicyclo[3.1.1]heptan-3-yl)-7-(thiazol-2-yl)-4-(2,2,2-trifluoro-1-(2,2,2-trifluoroethoxy)ethyl)benzo[d]oxazole]: the IC50 was less than 100 nM.

`CCOC(c1ccc(-c2nccs2)c2oc(N3CC4CCC(C3)N4)nc12)C(F)(F)F` (stereo not shown) [Example 220, 2-(3,8-Diazabicyclo[3.2.1]octan-3-yl)-4-(1-ethoxy-2,2,2-trifluoroethyl)-7-(thiazol-2-yl)benzo[d]oxazole]: the IC50 is less than 100 nM.

In the case of `CN(C)C(=O)c1ccc(-c2nccs2)c2oc(N3CC4CCC(C3)N4)nc12` [Example 115, 2-(3,8-Diazabicyclo[3.2.1]octan-3-yl)-N,N-dimethyl-7-(thiazol-2-yl)benzo[d]oxazole-4-carboxamide], the IC50 is less than 100 nM.

For the molecule `COC(C)(C)c1cc(-c2nccs2)c2oc(N3CC4CCC(C3)N4)nc2c1C(F)(F)F` [Example 171, 2-(3,8-Diazabicyclo[3.2.1]octan-3-yl)-5-(2-methoxypropan-2-yl)-7-(thiazol-2-yl)-4-(trifluoromethyl)benzo[d]oxazole], the IC50 is less than 100 nM.

As for `CCOC(c1cc(-c2nccs2)c2oc(N3CC4CC(C3)N4)nc2c1)C(F)(F)F` (stereo not shown) [Example 150, 2-(3,6-Diazabicyclo[3.1.1]heptan-3-yl)-5-(1-ethoxy-2,2,2-trifluoroethyl)-7-(thiazol-2-yl)benzo[d]oxazole], the IC50 is less than 100 nM.

Take `CC(O)(c1ccc(-c2nccs2)c2oc(N3CC4CCC(C3)N4)nc12)C(F)(F)F` (stereo not shown) [Example 236, 2-(2-(3,8-Diazabicyclo[3.2.1]octan-3-yl)-7-(thiazol-2-yl)benzo[d]oxazol-4-yl)-1,1,1-trifluoropropan-2-ol]: the IC50 was less than 100 nM.

With `FC(F)(F)Oc1c(Cl)cc(-c2ncco2)c2oc(N3CC4CCC(C3)N4)nc12` [Example 9, 2-(3,8-Diazabicyclo[3.2.1]octan-3-yl)-5-chloro-7-(oxazol-2-yl)-4-(trifluoromethoxy)benzo[d]oxazole], the IC50 is less than 100 nM.

In the case of `OC(c1cc(-c2cscn2)c2oc(N3CC4CC(C3)N4)nc2c1OC(F)(F)F)C(F)F` (stereo not shown) [Example 300, 1-(2-(3,6-Diazabicyclo[3.1.1]heptan-3-yl)-7-(thiazol-4-yl)-4-(trifluoromethoxy)benzo[d]oxazol-5-yl)-2,2-difluoroethan-1-ol], the IC50 is less than 100 nM.

Take `NS(=O)(=O)c1cc(-c2nccs2)c2oc(N3CC4CCC(C3)N4)nc2c1` [Example 57, 2-(3,8-Diazabicyclo[3.2.1]octan-3-yl)-7-(thiazol-2-yl) benzo[d]oxazole-5-sulfonamide]: the IC50 was less than 100 nM.

`OC1(COC(c2ccc(-c3nccs3)c3oc(N4CC5CC(C4)N5)nc23)C(F)(F)F)CC1` (stereo not shown) [Example 232, 1-((1-(2-(3,6-Diazabicyclo[3.1.1]heptan-3-yl)-7-(thiazol-2-yl)benzo[d]oxazol-4-yl)-2,2,2-trifluoroethoxy)methyl)cyclopropan-1-ol]: the IC50 is less than 100 nM.

Regarding `OC(c1ccc(-c2nccs2)c2oc(N3CC4CCC(C3)N4)nc12)C(F)(F)F` (stereo not shown) [Example 118, 1-(2-(3,8-Diazabicyclo[3.2.1]octan-3-yl)-7-(thiazol-2-yl)benzo[d]oxazol-4-yl)-2,2,2-trifluoroethan-1-ol], the IC50 is less than 100 nM.

For `O=C(O)c1cc(-c2nccs2)c2oc(N3CC4CC(C3)N4)nc2c1OC(F)(F)F` [Example 190, 2-(3,6-Diazabicyclo[3.1.1]heptan-3-yl)-7-(thiazol-2-yl)-4-(trifluoromethoxy)benzo[d]oxazole-5-carboxylic acid], the IC50 was more than 1000 nM.

As for `OC(c1ccc(-c2nccs2)c2oc(N3CC4CC(C3)N4)nc12)C(F)(F)F` (stereo not shown) [Example 120, 1-(2-(3,6-Diazabicyclo[3.1.1]heptan-3-yl)-7-(thiazol-2-yl)benzo[d]oxazol-4-yl)-2,2,2-trifluoroethan-1-ol], the IC50 is less than 100 nM.

For the molecule `FC(F)(F)COC(c1cc(-c2nccs2)c2oc(N3CC4CCC(C3)N4)nc2c1)C(F)(F)F` (stereo not shown) [Example 146, 2-(3,8-Diazabicyclo[3.2.1]octan-3-yl)-7-(thiazol-2-yl)-5-(2,2,2-trifluoro-1-(2,2,2-trifluoroethoxy)ethyl)benzo[d]oxazole], the IC50 was less than 100 nM.

As for `COC(C)c1ccc(-c2nccs2)c2oc(N3CC4CCCC(C3)N4)nc12` (stereo not shown) [Example 243, 2-(3,9-Diazabicyclo[3.3.1]nonan-3-yl)-4-(1-methoxyethyl)-7-(thiazol-2-yl)benzo[d]oxazole], the IC50 is less than 100 nM.

With `O=C(c1ccc(-c2nccs2)c2oc(N3CC4CCC(C3)N4)nc12)N1CCOCC1` [Example 116, (2-(3,8-Diazabicyclo[3.2.1]octan-3-yl)-7-(thiazol-2-yl)benzo[d]oxazol-4-yl)(morpholino)methanone], the IC50 is less than 100 nM.

Turning to `COC(C)c1cc(-c2nccs2)c2oc(N3CC4CCC(C3)N4)nc2c1OC(F)(F)F` (stereo not shown) [Example 210, 2-(3,8-Diazabicyclo[3.2.1]octan-3-yl)-5-(1-methoxyethyl)-7-(thiazol-2-yl)-4-(trifluoromethoxy)benzo[d]oxazole], the IC50 was less than 100 nM.

Consider `OCC(F)(F)Oc1ccc(-n2cccn2)c2oc(N3CC4CC(C3)N4)nc12` [Example 320, 2-((2-(3,6-Diazabicyclo[3.1.1]heptan-3-yl)-7-(1H-pyrazol-1-yl)benzo[d]oxazol-4-yl)oxy)-2,2-difluoroethan-1-ol], for which the IC50 was less than 100 nM.

Take `COC(C)(c1cc(-c2nccs2)c2oc(N3CC4CCCC(C3)N4)nc2c1)C(F)(F)F` (stereo not shown) [Example 162]: the IC50 was less than 100 nM.

Regarding `CC(C)(O)c1cc(-c2nccs2)c2oc(N3CC4CCCC(C3)N4)nc2c1OC(F)(F)F` [Example 197, 2-(2-(3,9-Diazabicyclo[3.3.1]nonan-3-yl)-7-(thiazol-2-yl)-4-(trifluoromethoxy)benzo[d]oxazol-5-yl)propan-2-ol], the IC50 was less than 100 nM.

On to `COC(C)(C)c1cc(-c2cscn2)c2oc(N3CC4CCC(C3)N4)nc2c1OC(F)(F)F` [Example 298, 2-(3,8-Diazabicyclo[3.2.1]octan-3-yl)-5-(2-methoxypropan-2-yl)-7-(thiazol-4-yl)-4-(trifluoromethoxy)benzo[d]oxazole], for which the IC50 is less than 100 nM.

With `CC(C)(O)COc1ccc(-c2nccs2)c2oc(N3CC4CC(C3)N4)nc12` [Example 279, 1-((2-(3,6-Diazabicyclo[3.1.1]heptan-3-yl)-7-(thiazol-2-yl)benzo[d]oxazol-4-yl)oxy)-2-methylpropan-2-ol], the IC50 was less than 100 nM.

Turning to `c1csc(-c2cc(OCC3COC3)cc3nc(N4CC5CCC(C4)N5)oc23)n1` [Example 70, 2-(3,8-Diazabicyclo[3.2.1]octan-3-yl)-5-(oxetan-3-ylmethoxy)-7-(thiazol-2-yl)benzo[d]oxazole], the IC50 is less than 100 nM.

As for `CC(O)(c1ccc(-c2nccs2)c2oc(N3CC4CC(C3)N4)nc12)C(F)(F)F` (stereo not shown) [Example 270, 2-(2-(3,6-Diazabicyclo[3.1.1]heptan-3-yl)-7-(thiazol-2-yl)benzo[d]oxazol-4-yl)-1,1,1-trifluoropropan-2-ol], the IC50 was less than 100 nM.

Still in this assay, the particulars now being: scintillation proximity assay; class symbols; read-out: PDE4 Inhibitory Activity.
For `O=C(O)c1ccc(-c2nccs2)c2oc(N3CC4CC(C3)N4)nc12` [Example 366, 2-(3,6-diazabicyclo [3.1.1]heptan-3-yl)-7-(thiazol-2-yl)benzo[d] oxazole-4-carboxylic acid], the IC50 was 100 to 1000 nM.

For the molecule `CC(C)(O)c1cc(-c2nccs2)c2oc(N3CC4CCC(C3)N4O)nc2c1C(F)(F)F` [Example 381, 3-(5-(2-hydroxy-propan-2-yl)-7-(thiazol-2-yl)-4-(trifluoromethyl)benzo[d]oxazol-2-yl)-3,8-diaza-bicyclo[3.2.1] octan-8-ol], the IC50 was more than 1000 nM.

`C=CC(F)(F)Oc1ccc(-c2nccs2)c2oc(N3CC4CC(C3)N4)nc12` [Example 351, 2-(3,6-diazabicyclo[3.1.1]heptan-3-yl)-4-((1,1-difluoroallyl)oxy)-7-(thiazol-2-yl)benzo[d] oxazole]: the IC50 was less than 100 nM.

Take `O=S(=O)(c1ccc(-c2nccs2)c2oc(N3CC4CC(C3)N4)nc12)N1CCCC1` [Example 390, 2-(3,6-diazabicyclo[3.1.1]heptan-3-yl)-4-(pyrrolidin-1-yl-sulfonyl)-7-(thiazol-2-yl)benzo [d]oxazole]: the IC50 was less than 100 nM.

For the molecule `c1csc(-c2ccc(C3CC3)c3nc(N4CC5CC(C4)N5)oc23)n1` [Example 344, 2-(3,6-diazabicyclo [3.1.1]heptan-3-yl)-4-cyclopropyl-7-(thiazol-2-yl)benzo[d] oxazole], the IC50 was less than 100 nM.
